Experimental data taken from patent US12252701B2, “Chimeric antigen receptor T cell therapy” (KITE PHARMA, INC., priority 2020, dated 2025).
Read-outs that look alike come from different tables or passages of the source.

What was measured:
[1] = Clinical pharmacokinetic data converted to in vitro concentrations; conditions: human, in vivo
Description: Given the different potencies of the JAK inhibitors and different pharmacokinetic properties for each drug, it was sought to test each drug at a relevant range of physiological concentrations based on clinical dosing and reported pharmacokinetic data from repeat dose studies. Reported Cmax values in patient sera were converted to in vitro concentrations and adjusted for reported plasma protein binding.

[2] = cited from earlier work
CAR-T cells = assay: CAR-T cell expansion assay (KIP-1 or CD3/CD28 stimulation); conditions: CD3/CD28
Nalm-6 luc = assay: CAR-T cell killing assay (luciferase viability of tumor cells)
CD19 CAR T cells = assay: CAR T cell cytokine production (Luminex) under CD19 K562, KIP-1 or CD2/3/28 stimulation; conditions: 72 h; for IC50: Homo sapiens, T-cell

In the case of `C[C@@H]1C[C@H]2[C@@H]3CCC4=CC(=O)C=C[C@]4(C)[C@@]3(F)[C@@H](O)C[C@]2(C)[C@@]1(O)C(=O)CO` [dexamethasone], the “PPB adj. in Vitro concentration” value [1] is given as 67.4 nM, the “clinically relevant dose level (in vitro concentration)” value [1] is given as roughly 70 nM and the “Cmax” value ([2]; human, in vivo) is given as 115 ng/mL. For the same compound, the Protein binding ([2]; plasma protein binding, reported) was 77%, the “% viability” value (CAR-T cells; dose 50 nM, day 4) was 45.9% and the “% viability” value (CAR-T cells; dose 50 nM, day 8) was 44.4%. The “% viability” value (CAR-T cells; dose 50 nM, day 12) was 74.7%, the “% viability” value (CAR-T cells; dose 100 nM, day 4) was 53.4% and the “% viability” value (CAR-T cells; dose 100 nM, day 8) was 51.3%. The “% viability” value (CAR-T cells; dose 100 nM, day 12) was 66.3%, the “Mean tumor cell death (%)” value (Nalm-6 luc; E:T ratio 1:1, dose 10 nM) was 98.09% and the “Mean tumor cell death (%)” value (Nalm-6 luc; E:T ratio 1:1, dose 100 nM) was 92.30%. For the same compound, the “Mean tumor cell death (%)” value (Nalm-6 luc; E:T ratio 1:1, dose 250 nM) was 97.15%, the “Mean tumor cell death (%)” value (Nalm-6 luc; E:T ratio 1:3, dose 10 nM) was 34.66% and the “Mean tumor cell death (%)” value (Nalm-6 luc; E:T ratio 1:3, dose 100 nM) was 19.94%. For the same compound, the “Mean tumor cell death (%)” value (Nalm-6 luc; E:T ratio 1:3, dose 250 nM) was 20.38%, the “Mean tumor cell death (%)” value (Nalm-6 luc; E:T ratio 1:9, dose 10 nM) was 7.08% and the “Mean tumor cell death (%)” value (Nalm-6 luc; E:T ratio 1:9, dose 100 nM) was 3.02%. For the same compound, the “Mean tumor cell death (%)” value (Nalm-6 luc; E:T ratio 1:9, dose 250 nM) was 2.48%, the “Suppression of cytokine production, MCP-1, % inh.” value (CD19 CAR T cells; CD3/CD28 stimulation) was greater than 80% inh and the “Suppression of cytokine production, TNFa, % inh.” value (CD19 CAR T cells; CD3/CD28 stimulation) was greater than 50% inh. The IC50 (CD19 CAR T cells; read-out: Suppression of cytokine production, GMCSF (IC50), CD3/CD28 stimulation, 72 h) was greater than 10 µM, the IC50 (CD19 CAR T cells; read-out: Suppression of cytokine production, GMCSF (IC50), K562-CD19 stimulation, 72 h) was greater than 10 µM and the IC50 (CD19 CAR T cells; read-out: Suppression of cytokine production, GzB (IC50), CD3/CD28 stimulation, 72 h) was greater than 10 µM. For the same compound, the IC50 (CD19 CAR T cells; read-out: Suppression of cytokine production, GzB (IC50), K562-CD19 stimulation, 72 h) was greater than 10 µM, the IC50 (CD19 CAR T cells; read-out: Suppression of cytokine production, GzB (IC50), KIP-1 stimulation, 72 h) was greater than 10 µM and the IC50 (CD19 CAR T cells; read-out: Suppression of cytokine production, IFNg (IC50), CD3/CD28 stimulation, 72 h) was greater than 10 µM. For the same compound, the IC50 (CD19 CAR T cells; read-out: Suppression of cytokine production, IFNg (IC50), K562-CD19 stimulation, 72 h) was greater than 10 µM, the IC50 (CD19 CAR T cells; read-out: Suppression of cytokine production, IFNg (IC50), KIP-1 stimulation, 72 h) was greater than 10 µM and the IC50 (CD19 CAR T cells; read-out: Suppression of cytokine production, IL-2Ra (IC50), CD3/CD28 stimulation, 72 h) was greater than 10 µM. For the same compound, the IC50 (CD19 CAR T cells; read-out: Suppression of cytokine production, IL-2Ra (IC50), K562-CD19 stimulation, 72 h) was greater than 10 µM, the IC50 (CD19 CAR T cells; read-out: Suppression of cytokine production, IL-8 (IC50), CD3/CD28 stimulation, 72 h) was greater than 10 µM and the IC50 (CD19 CAR T cells; read-out: Suppression of cytokine production, IL-8 (IC50), K562-CD19 stimulation, 72 h) was greater than 10 µM. It also gave an IC50 (CD19 CAR T cells; read-out: Suppression of cytokine production, IL-10 (IC50), CD3/CD28 stimulation, 72 h) greater than 10 µM, an IC50 (CD19 CAR T cells; read-out: Suppression of cytokine production, MIG (IC50), CD3/CD28 stimulation, 72 h) greater than 10 µM and an IC50 (CD19 CAR T cells; read-out: Suppression of cytokine production, MIP-1a (IC50), CD3/CD28 stimulation, 72 h) greater than 10 µM. For the same compound, the IC50 (CD19 CAR T cells; read-out: Suppression of cytokine production, MIP-1a (IC50), K562-CD19 stimulation, 72 h) was greater than 10 µM, the IC50 (CD19 CAR T cells; read-out: Suppression of cytokine production, MIP-1a (IC50), KIP-1 stimulation, 72 h) was greater than 10 µM and the IC50 (CD19 CAR T cells; read-out: Suppression of cytokine production, MIP-1b (IC50), CD3/CD28 stimulation, 72 h) was greater than 10 µM. It also gave an IC50 (CD19 CAR T cells; read-out: Suppression of cytokine production, MIP-1b (IC50), K562-CD19 stimulation, 72 h) greater than 10 µM, an IC50 (CD19 CAR T cells; read-out: Suppression of cytokine production, MIP-1b (IC50), KIP-1 stimulation, 72 h) greater than 10 µM and an IC50 (CD19 CAR T cells; read-out: Suppression of cytokine production, Perforin (IC50), CD3/CD28 stimulation, 72 h) greater than 10 µM. For the same compound, the IC50 (CD19 CAR T cells; read-out: Suppression of cytokine production, Perforin (IC50), K562-CD19 stimulation, 72 h) was greater than 10 µM, the IC50 (CD19 CAR T cells; read-out: Suppression of cytokine production, Perforin (IC50), KIP-1 stimulation, 72 h) was greater than 10 µM and the “Suppression of cytokine production, IL-6, % inh.” value (CD19 CAR T cells; KIP-1 stimulation) was 66% inh. For the same compound, the “Suppression of cytokine production, IL-10, % inh.” value (CD19 CAR T cells; KIP-1 stimulation) was 50% inh, the “Suppression of cytokine production, MCP-1, % inh.” value (CD19 CAR T cells; KIP-1 stimulation) was 66% inh and the “Suppression of cytokine production, MIG, % inh.” value (CD19 CAR T cells; KIP-1 stimulation) was 50% inh. For the same compound, the “Suppression of cytokine production, TNFa, % inh.” value (CD19 CAR T cells; KIP-1 stimulation) was 75% inh.
